Measurements reported in US5055459A, “Selective elimination of malignant cells from bone marrow by bis (acyloxy) propylphosphoramidates” (Board of Regents, The University of Texas, priority 1989, dated 1991).
Converted amounts (≈) assume the structure as drawn. “Also recorded” adds a separate entry of the source.

Tests used:
[1] = background; cited from earlier work
[2] = tested on: L1210 lymphatic leukemia cells; experiment: cells; assay type: cell-based, murine; conditions: Mus musculus, L1210, 72 h, read-out: ED50
[3] = tested on: mononuclear cells from normal bone marrow (GM-CFC); experiment: cells; conditions: Homo sapiens, 1 h
KBM-3 = experiment: Clonogenic assay, drug in agar, prolonged exposure (Table 8, FIG. 11); assay type: cell-based; conditions: Homo sapiens, drug added to agar plates
[4] = tested on: GM-CFC from normal human bone marrow; experiment: Long-term suspension culture: GM-CFC regrowth on autologous irradiated adherent cell layers (Table 9); assay type: cell-based; conditions: for GM-CFC × 10^-3 per adherent cell layer: end of culture period; for GM-CFC × 10^-3 per adherent cell layer / GM-CFC × 10^-3 per culture: average ± S.D.
Protocol: (§1) A modification of previously reported techniques was used (Gartner and Kaplan, 1980; Greenberg et al., 1981; Potter et al., 1981; Coulombel et al., 1983). Briefly, 1×10^7 mononuclear bone marrow cells were suspended in 10 ml IMDM supplemented with 12.5% horse serum, 12.5% FCS and 5×10^-6 M hydrocortisone succinate (HyC) (Abbott Laboratories, N. Chicago, Ill.) in 25 cm^2 tissue culture flasks (Corning Glass Works, Corning N.Y.). After 8 to 10 days an adherent fibroblast (feeder) layer, supplying a hemopoietic microenvironment, was established. The non-adherent cells were washed off, and the feeder layer was irradiated with 3.0 Gy gamma-irradiation at a dose rate of 3.3 Gy per min. A second bone marrow sample was obtained from the same donor, and low-density mononuclear cells were isolated as above. The cells were exposed for 60 min at 37° C. to increasing drug concentrations. After two washings, the cells were suspended in 10 ml IMDM with 10% FCS and 5×10^-6 M HyC, and then added to the previously established feeder layers. All cultures were established in duplicate, and all flasks were incubated for five weeks at 37° C. in an atmosphere of 5% CO2 and 12% O2 balanced with N2 to 100%. Twice weekly, 85% of the medium was replaced with fresh medium. Immediately after drug exposure, and at weekly intervals up to 5 weeks, one ml of the cell suspension was removed and monitored for the presence of GM-CFC using the soft agar assay as described above. The total number of surviving GM-CFC formed from untreated cells served as a quality control of the culture system and as a reference (positive controls) for calculating the surviving GM-CFC fraction in cultures of drug-treated cells Flasks containing irradiated stromal cell layers alone were subjected to the same twice-weekly media changes and were monitored weekly for possible regrowth of GM-CFC (negative controls). After five weeks, all non-adherent cells were removed from the flasks. The feeder layers were carefully rinsed twice with 10 ml of PBS, then treated with 0.2% trypsin in EDTA solution (GIBCO Laboratories, Grand Island, N.Y.) for 2-3 min at 37° C. After washing, the resulting single cell suspensions were assayed for GM-CFC.
(§2) ^a Average values ± S.D. for three experiments. In each experiment
(§3) the cultures were conducted in duplicates.
(§4) ^b At the end of the culture period. For details see Materials and […]

[5] = as above; assay type: cell-based, human; conditions: human, bone marrow gm-cfc; concentration used in long-term suspension cultures; read-out: detectable GM-CFC abolished
Protocol: as §1, §2, §3, §4

[6] = tested on: KBM-3 leukemic CFC and GM-CFC in bone marrow; experiment: cells; assay type: cell-based, human
in vitro = conditions: human, bone marrow gm-cfc
KBM-3/AMSA = experiment: cells; assay type: cell-based, human; conditions: Homo sapiens
[7] = tested on: mononuclear cells from normal bone marrow (GM-CFC)
[8] = tested on: human myeloid cell line KBM-3; experiment: cells
[9] = tested on: GM-CFC from normal human bone marrow
HL-60/AMSA = experiment: cells; assay type: cell-based; conditions: Homo sapiens
KBM-3/DOX = experiment: cells; assay type: cell-based, human; conditions: Homo sapiens
[10] = tested on: human myeloid cell line KBM-3
[11] = Stability of frozen stock solution; assay type: physicochemical; conditions: frozen at -80° C., stock solution 265 uM
Protocol: In the initial experiments, acetaldoifosphamide (1-C) was weighed and dissolved in Dulbecco's phosphate-buffered saline (pH 7.4) (GIBCO, Grand Island, N.Y.) supplemented with Ca++ (10 mg %) and glucose (100 mg %) (enriched PBS) immediately prior to each experiment. […] In subsequent experiments a frozen stock solution was used; aliquots were thawed as necessary immediately prior to use.

HL-60 = experiment: Clonogenic assay, drug in agar, prolonged exposure (Table 8, FIG. 11); assay type: cell-based; conditions: Homo sapiens, drug added to agar plates
[12] = Stability in phosphate-buffered saline

O=P1(N(CCCl)CCCl)NCCCO1 (stereo not drawn) [Cyclophosphamide, cyclophosphamide, reference compound]
therapeutic index, in words [1]: higher therapeutic index than must other mustard-type alkylating agents | IC50 [2]: 20 µg/mL (≈ 76.6 µM)

CC(=O)OC(CCOP(=O)(NCCCl)NCCCl)OC(C)=O [acetaldoifosphamide]
IC50 [3]: 11.5 to 12.5 µM | IC50 (KBM-3): 200 nM | GM-CFC × 10^-3 per adherent cell layer ([4]; 26.4 uM): 0.22 ± 0.09 GM-CFC × 10^-3 per adherent ce | GM-CFC × 10^-3 per culture ([4]; 26.4 uM, week 0): 2.8 ± 1.5 GM-CFC × 10^-3 per culture | GM-CFC × 10^-3 per culture ([4]; 26.4 uM, week 1): 15.0 ± 1.8 GM-CFC × 10^-3 per culture | GM-CFC × 10^-3 per culture ([4]; 26.4 uM, week 2): 18.2 ± 4.6 GM-CFC × 10^-3 per culture | GM-CFC × 10^-3 per culture ([4]; 26.4 uM, week 3): 2.9 ± 1.1 GM-CFC × 10^-3 per culture | GM-CFC × 10^-3 per culture ([4]; 26.4 uM, week 4): 0.8 ± 0.4 GM-CFC × 10^-3 per culture | GM-CFC × 10^-3 per culture ([4]; 26.4 uM, week 5): 0.09 ± 0.03 GM-CFC × 10^-3 per culture | GM-CFC content of adherent cell layer vs controls ([4]; 33 uM, end of five weeks): contained more GM-CFC than the controls | GM-CFC × 10^-3 per adherent cell layer ([4]; 33.0 uM): 0.12 ± 0.04 GM-CFC × 10^-3 per adherent ce | GM-CFC × 10^-3 per culture ([4]; 33.0 uM, week 0): 0.1 ± 0.04 GM-CFC × 10^-3 per culture | GM-CFC × 10^-3 per culture ([4]; 33.0 uM, week 1): 7.7 ± 1.3 GM-CFC × 10^-3 per culture | GM-CFC × 10^-3 per culture ([4]; 33.0 uM, week 2): 18.6 ± 2.5 GM-CFC × 10^-3 per culture | GM-CFC × 10^-3 per culture ([4]; 33.0 uM, week 3): 2.6 ± 0.3 GM-CFC × 10^-3 per culture | GM-CFC × 10^-3 per culture ([4]; 33.0 uM, week 4): 1.1 ± 0.3 GM-CFC × 10^-3 per culture | GM-CFC × 10^-3 per culture ([4]; 33.0 uM, week 5): 0.13 ± 0.06 GM-CFC × 10^-3 per culture | GM-CFC content of adherent cell layer vs controls ([4]; 39.6 uM, end of five weeks): had the same GM-CFC content as the controls | GM-CFC × 10^-3 per adherent cell layer ([4]; 39.6 uM): 0.06 ± 0.03 GM-CFC × 10^-3 per adherent ce | GM-CFC × 10^-3 per culture ([4]; 39.6 uM, week 0): 0.3 ± 0.2 GM-CFC × 10^-3 per culture | GM-CFC × 10^-3 per culture ([4]; 39.6 uM, week 1): 16.8 ± 7.6 GM-CFC × 10^-3 per culture | GM-CFC × 10^-3 per culture ([4]; 39.6 uM, week 2): 18.5 ± 6.5 GM-CFC × 10^-3 per culture | GM-CFC × 10^-3 per culture ([4]; 39.6 uM, week 3): 3.9 ± 1.3 GM-CFC × 10^-3 per culture | GM-CFC × 10^-3 per culture ([4]; 39.6 uM, week 4): 0.8 ± 0.3 GM-CFC × 10^-3 per culture | GM-CFC × 10^-3 per culture ([4]; 39.6 uM, week 5): 0.10 ± 0.02 GM-CFC × 10^-3 per culture | number of GM-CFC in non-adherent and adherent population ([4]; 53 uM, end of five weeks): subnormal number of GM-CFC | GM-CFC × 10^-3 per adherent cell layer ([4]; 53.0 uM): 0.03 ± 0.01 GM-CFC × 10^-3 per adherent ce | GM-CFC × 10^-3 per culture ([4]; 53.0 uM, week 0): 0 GM-CFC × 10^-3 per culture | GM-CFC × 10^-3 per culture ([4]; 53.0 uM, week 1): 0.2 ± 0.0 GM-CFC × 10^-3 per culture | GM-CFC × 10^-3 per culture ([4]; 53.0 uM, week 2): 1.2 ± 0.2 GM-CFC × 10^-3 per culture | GM-CFC × 10^-3 per culture ([4]; 53.0 uM, week 3): 0.3 ± 0.1 GM-CFC × 10^-3 per culture | GM-CFC × 10^-3 per culture ([4]; 53.0 uM, week 4): 0.06 ± 0.02 GM-CFC × 10^-3 per culture | GM-CFC × 10^-3 per culture ([4]; 53.0 uM, week 5): 0.006 ± 0.002 GM-CFC × 10^-3 per culture | IC99 ([4]; Homo sapiens, 1 h, GM-CFC): 33 µM | IC100 ([4]; Homo sapiens, 1 h, GM-CFC): 53 µM | time to recovery of GM-CFC to control level ([4]; after bone marrow exposure): ≤ 2 weeks | GM-CFC recovery to control levels ([4]; normal bone marrow, concentration abolishing more than 99% of GM-CFC): two to three weeks | cytotoxicity at 1 h [5]: > 99% | regrowth / elimination of leukemic cells [6]: leukemic cell proliferation was not evident; also recorded: no regrowth of leukemic CFC was observed; also recorded: the leukemia was completely eliminated with full recovery of GM-CFC production | log reduction at 39.6 µM ([6]; Homo sapiens, 1 h, read-out: reduction of leukemic cells): > 5 | cytotoxicity at 1 h (in vitro): 95 to 100% | IC50 (KBM-3/AMSA): 680 nM | effect of erythrocytes on activity [7]: decreases the activity | cytotoxicity relative to 4-HC on a molar basis ([7]; human): 8-10 times | IC90 [8]: ~1300 nM | GM-CFC doubling time [9]: 6 to 12 h | GM-CFC recovery kinetics / progenitor sparing, in words [9]: has a sparing effect on very immature hemopoietic stem cells | delay in proliferation of the GM-CFC pool [9]: 24 h | detectable GM-CFC after highest concentration [9]: initially had no detectable GM-CFC, however after day two rapid GM-CFC proliferation was apparent | IC50 (HL-60/AMSA): 560 nM | IC50 (KBM-3/DOX): 160 nM | activity against normal marrow GM-CFC versus leukemic myeloid CFC (KBM-3) [10]: more active against normal marrow GM-CFC than against leukemic myeloid CFC | dependence of cytotoxicity on cell concentration [10]: a 20-fold increase in cell concentration results in only a two-fold decrease in cytotoxicity | increase in clonogenic KBM-3 cell survival [10]: 2 fold | retention of full cytotoxic activity on storage [11]: retained full cytotoxic activity for more than four months | IC50 (HL-60): 300 nM | half-life ([12]; pbs, pH 7.4): > 3.33 days | stability in saline solution ([12]; saline solution): stable in saline solution
